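Values below derive from 48-hour exposures of cells grown in 96-well plates, with endpoints linearly interpolated between the two concentrations bracketing the appropriate inhibition level. Abbreviation: GI50, concentration required for 50% inhibition of growth. TGI: concentration producing complete growth inhibition.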
What was measured:
Test in all cases: NCI anticancer screen, dose series, 48 h
A549 NSCLC = test system: A549 NSCLC
HOP-62 NSCLC = test system: HOP-62 NSCLC
K-562 leukemia = test system: K-562 leukemia
KM20L2 colon = test system: KM20L2 colon
M19-MEL melanoma = test system: M19-MEL melanoma
MDA-MB-435 = test system: MDA-MB-435
PC-3 prostate = test system: PC-3 prostate
SF-295 CNS = test system: SF-295 CNS
SNB-75 CNS = test system: SNB-75 CNS
UACC-62 melanoma = test system: UACC-62 melanoma

Row | SMILES | TGI (A549 NSCLC) | TGI (HOP-62 NSCLC) | TGI (K-562 leukemia) | TGI (KM20L2 colon) | TGI (M19-MEL melanoma) | TGI (MDA-MB-435) | TGI (PC-3 prostate) | TGI (SF-295 CNS) | TGI (SNB-75 CNS) | TGI (UACC-62 melanoma) | GI50 (A549 NSCLC) | GI50 (K-562 leukemia) | GI50 (KM20L2 colon) | GI50 (SF-295 CNS) | GI50 (SNB-75 CNS) | GI50 (UACC-62 melanoma) | GI50 (HOP-62 NSCLC) | GI50 (MDA-MB-435) | GI50 (PC-3 prostate)
1 | Cc1c(N=Cc2ccc(N(CCC#N)CCC#N)cc2)c(=O)n(-c2ccccc2)n1C | > 100 µM | 86.1 µM | > 100 µM | > 100 µM | > 100 µM | > 100 µM | > 100 µM | 71.6 µM | 60.1 µM | > 100 µM |  |  |  |  |  |  |  |  | 
2 | N#CC1C2CCC3(CC2CCN1C(=O)c1ccccc1)OCCO3 (stereo unspecified) | > 100 µM | > 100 µM | > 100 µM | > 100 µM | > 100 µM |  |  | > 100 µM | > 100 µM | > 100 µM |  |  |  |  |  |  |  |  | 
3 | C=C1C(=O)OC2CC(C)C3C=CC(=O)C3CC12 (stereo unspecified) | 24 µM | 31.8 µM | 12.9 µM | 12.8 µM | 9.19 µM | 12.4 µM | 7.17 µM | 28.9 µM | 18.5 µM | 3.74 µM |  |  |  |  |  |  |  |  | 
4 | Cn1cnc([N+](=O)[O-])c1Sc1nnnn1-c1ccccc1 | 62.9 µM | > 100 µM | 19.9 µM |  | 24.4 µM |  |  | 39.7 µM | 31 µM | 27.4 µM |  |  |  |  |  |  |  |  | 
5 | N#C/C(=C\c1ccc(C(O)P(=O)(O)O)cc1)C(N)=O (stereo unspecified) | > 100 µM | > 100 µM | > 100 µM | > 100 µM | > 100 µM |  |  | > 100 µM |  | > 100 µM |  |  |  |  |  |  |  |  | 
6 | CC1C(=O)O[C@H]2C1CC[C@@]1(C)[C@H](O)CC[C@@]13C[C@]2(O)OO3 (stereo partly specified) | > 100 µM | > 100 µM | > 100 µM | > 100 µM | > 100 µM |  |  | > 100 µM |  | > 100 µM |  |  |  |  |  |  |  |  | 
7 | C1COCCOCCOCCOCCO1.CC(=O)[CH-]C(C)=O.CC(=O)[CH-]C(C)=O.CC(=O)[CH-]C(C)=O.[V] | > 100 µM |  | 71.4 µM | 61.7 µM |  |  |  | 22 µM | 23 µM | 17.4 µM | 22.7 µM | 29.1 µM | 27.4 µM | 7.9 µM | 10.6 µM | 4.25 µM |  |  | 
8 | COc1cc(/C=C(\OC(C)=O)c2ccc3c(c2)OCO3)cc(OC)c1OC | > 100 µM | 47.7 µM | > 100 µM | > 100 µM | 30.9 µM |  |  | 98.6 µM | 46.7 µM | 34.2 µM |  |  |  |  |  |  |  |  | 
9 | Cc1ccc(Oc2ccc([N+](=O)[O-])cc2[N+](=O)[O-])c(C)c1 | > 100 µM | > 100 µM | > 100 µM |  | > 100 µM |  |  | > 100 µM | > 100 µM | > 100 µM |  |  |  |  |  |  |  |  | 
10 | CCOC(=O)/C(=C\c1ccc[nH]1)C(=O)c1ccccc1 | > 100 µM | > 100 µM | > 100 µM | > 100 µM | > 100 µM |  |  | > 100 µM | > 100 µM | > 100 µM |  |  |  |  |  |  |  |  | 
11 | CC(C)C(=O)/C=C/c1ccc(Cl)c(Cl)c1 | 49.2 µM |  | 72.2 µM | 37.8 µM | 32.3 µM |  |  | 29.4 µM |  | 34.9 µM |  |  |  |  |  |  |  |  | 
12 | CSc1ncnc2c1CCN2 | > 100 µM | > 100 µM |  |  | > 100 µM | 6.04 µM |  | > 100 µM |  | > 100 µM | > 100 µM |  |  | > 100 µM |  | > 100 µM |  |  | 
13 | CCCN(CCSSCCNc1nc(N(C)O)nc(N(C)O)n1)c1nc(N(C)O)nc(N(C)O)n1 | > 100 µM | > 100 µM | > 100 µM |  |  | > 100 µM | > 100 µM | 58.3 µM | > 100 µM | 28.9 µM | 7.59 µM | 15.7 µM |  | 3.56 µM | 24.4 µM | 4.39 µM | 4.49 µM | 4.91 µM | 82.4 µM
14 | COc1ccc(/C=C/NC=O)cc1 | > 100 µM | > 100 µM | > 100 µM |  |  | > 100 µM | > 100 µM | > 100 µM | > 100 µM | > 100 µM |  |  |  |  |  |  |  |  | 
15 | CC1(O)CCC2(C#N)CCC1C2O (stereo unspecified) | > 100 µM | > 100 µM | > 100 µM | > 100 µM | > 100 µM |  |  | > 100 µM | > 100 µM | > 100 µM |  |  |  |  |  |  |  |  | 

From PubChem BioAssay (NCI)
